{
  "source": "BindingDB's records for doi:10.1021/np200603g",
  "about": "(Yunnan University, 2011)",
  "biological_target": "T1, Programmed cell death protein 4 (Homo sapiens, UniProt Q53EL6)",
  "T1 sequence (Q53EL6 whole entry)": "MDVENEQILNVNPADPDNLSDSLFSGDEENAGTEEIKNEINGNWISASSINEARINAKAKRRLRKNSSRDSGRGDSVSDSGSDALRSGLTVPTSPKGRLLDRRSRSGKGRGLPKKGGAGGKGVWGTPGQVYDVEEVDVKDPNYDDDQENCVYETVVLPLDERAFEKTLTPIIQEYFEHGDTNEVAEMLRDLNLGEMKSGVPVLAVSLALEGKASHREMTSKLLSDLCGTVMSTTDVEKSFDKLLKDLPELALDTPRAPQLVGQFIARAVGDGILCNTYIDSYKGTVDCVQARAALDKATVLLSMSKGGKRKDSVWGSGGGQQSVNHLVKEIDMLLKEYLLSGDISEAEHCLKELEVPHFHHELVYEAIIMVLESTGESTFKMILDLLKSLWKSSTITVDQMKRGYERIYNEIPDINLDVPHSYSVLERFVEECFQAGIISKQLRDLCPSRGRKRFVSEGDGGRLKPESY",
  "experiment": "Stabilization of Pdcd4 expressed in human HEK293 cells assessed as inhibition of TPA-induced degradation by luciferase reporter assay",
  "data": [
    {"smiles": "Nc1ncnc2c1ccn2[C@@H]1O[C@H](CO)[C@@H](O)[C@H]1O", "note": "['2-(4-AMINO-PYRROLO[2,3-D]PYRIMIDIN-7-YL)-5-HYDROXYMETHYL-TETRAHYDRO-FURAN-3,4-DIOL]", "values": [
      {"measurement": "IC50", "value": 880, "unit": "nM"}
    ]}
  ]
}
